From the supplement of paper PMC8960247
Structures can show the parent of a compound that is named as a salt. ± gives the standard error.

Tested on: 621-102 (TSC2-deficient)
Experiment: relative viability vs DMSO; higher = less cytotoxic
Details: 0.0001 µM; serum: 10% FBS; 72 h
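Note: immortalized renal angiomyolipoma cells stably carrying empty vector or TSC2, dosed in 384-well plates in DMEM, viability normalized to vehicle-treated wells within each plate.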

| SMILES | relative viability [%] |
| --- | --- |
| COc1cc2c(N3CCN(C(=O)Nc4ccc(OC(C)C)cc4)CC3)ncnc2cc1OCCCN1CCCCC1 [Tandutinib (MLN518)] | 107 ± 3.1 |
| CNC(=O)c1cc(COc2nnc(Nc3ccc(Cl)cc3)c3ccoc23)ccn1 [Telatinib (BAY57-9352)] | 94.64 ± 0.47 |
| CCCc1nc2c(C)cc(-c3nc4ccccc4n3C)cc2n1Cc1ccc(-c2ccccc2C(=O)O)cc1 [Telmisartan] | 104 ± 2.5 |
| C[C@H](Cn1cnc2c(N)ncnc21)OCP(=O)(O)O [Tenofovir] | 66.9 ± 0.97 |
| CN(C/C=C/C#CC(C)(C)C)Cc1cccc2ccccc12 [Terbinafine HCl] | 96.9 ± 2.1 |
| CCC(=O)O[C@H]1CC[C@H]2[C@@H]3CCC4=CC(=O)CC[C@]4(C)[C@H]3CC[C@]12C [Testosterone propionate (Agovirin)] | 104 ± 2.2 |
| CCCCNc1ccc(C(=O)OCCN(C)C)cc1 [Tetracaine HCl] | 113 ± 2.6 |
| C[N+]1(C)[C@@H]2C[C@@H](OC(=O)C(O)(c3cccs3)c3cccs3)C[C@H]1[C@@H]1O[C@@H]12 [Tiotropium Bromide hydrate] | 119 ± 6 |
| C[N+]1(C)[C@@H]2C[C@@H](OC(=O)C(O)(c3cccs3)c3cccs3)C[C@H]1[C@@H]1O[C@@H]12 [Tiotropium] | 119 ± 3.2 |
| O=c1oc2cc(O)ccc2s1 [Tioxolone] | 103 ± 7.6 |
| O=c1n(CCCN2CCN(c3cccc(Cl)c3)CC2)nc2ccccn12 [Trazodone HCl] | 103 ± 1.2 |
| CC(/C=C/C(=O)NO)=C\[C@@H](C)C(=O)c1ccc(N(C)C)cc1 [Trichostatin A] | 113.6 ± 0.35 |
| C[C@]12CC[C@H]3[C@@H](CC[C@@]45O[C@@H]4C(O)=C(C#N)C[C@]35C)[C@@H]1CC[C@@H]2O [Trilostane] | 104 ± 4.1 |
| CN1[C@@H]2CC[C@H]1C[C@@H](OC(=O)c1c[nH]c3ccccc13)C2 [Tropisetron HCl] | 82.2 ± 3.4 |
| O=C(O[C@H]1C[C@H]2CC[C@@H](C1)[N+]21CCCC1)C(O)(c1ccccc1)c1ccccc1 [Trospium chloride (Sanctura)] | 116 ± 2.6 |
| CN1CCc2c(c3ccccc3n2Cc2ccc(C(=O)NO)cc2)C1 [Tubastatin A HCl] | 73.7 ± 1.7 |
| N#CC(=C(/N)Sc1ccccc1N)/C(C#N)=C(\N)Sc1ccccc1N [U0126-EtOH] | 105 ± 3.4 |
| NC(=O)c1cccc(-c2cccc(OC(=O)NC3CCCCC3)c2)c1 [URB597] | 104.9 ± 0.41 |
| CC(C)(C)C#Cc1cc(N(C(=O)[C@H]2CC[C@H](C)CC2)[C@H]2CC[C@H](O)CC2)c(C(=O)O)s1 [VX-222] | 109 ± 1.1 |
| NC(=O)c1ccc(N(C(N)=O)c2c(F)cccc2F)nc1-c1ccc(F)cc1F [VX-702] | 107 ± 1.9 |
| O=c1ncn2nc(Sc3ccc(F)cc3F)ccc2c1-c1c(Cl)cccc1Cl [VX-745] | 106 ± 5.1 |
| CCO[C@@H]1OC(=O)C[C@@H]1NC(=O)[C@@H]1CCCN1C(=O)[C@@H](NC(=O)c1ccc(N)c(Cl)c1)C(C)(C)C [VX-765] | 109 ± 0.74 |
| CC(C)(C)c1cc(C(C)(C)C)c(NC(=O)c2c[nH]c3ccccc3c2=O)cc1O [VX-770] | 97.8 ± 4.5 |
| CCCCC(=O)N(Cc1ccc(-c2ccccc2-c2nnn[nH]2)cc1)[C@H](C(=O)O)C(C)C [Valsartan] | 85.7 ± 5 |
| COc1cc2/c(=N/c3ccc(Br)cc3F)nc[nH]c2cc1OCC1CCN(C)CC1 [Vandetanib] | 94.4 ± 4.3 |
| CCCc1nc(C)c2c(=O)nc(-c3cc(S(=O)(=O)N4CCN(CC)CC4)ccc3OCC)[nH]n12 [Vardenafil (Vivanza)] | 103 ± 2.4 |
| Clc1ccc(Nc2nnc(Cc3ccncc3)c3ccccc23)cc1 [Vatalanib] | 94.7 ± 6.8 |
| COc1ccc(C(CN(C)C)C2(O)CCCCC2)cc1 (centres undefined) [Venlafaxine HCl] | 74.8 ± 0.85 |

Same assay, conditions: 0.001 µM; serum: 10% FBS; 72 h

| SMILES | relative viability [%] |
| --- | --- |
| COc1cc2c(N3CCN(C(=O)Nc4ccc(OC(C)C)cc4)CC3)ncnc2cc1OCCCN1CCCCC1 [Tandutinib (MLN518)] | 97.9 ± 4.1 |
| CNC(=O)c1cc(COc2nnc(Nc3ccc(Cl)cc3)c3ccoc23)ccn1 [Telatinib (BAY57-9352)] | 95.1 ± 4.9 |
| CCCc1nc2c(C)cc(-c3nc4ccccc4n3C)cc2n1Cc1ccc(-c2ccccc2C(=O)O)cc1 [Telmisartan] | 104 ± 1.6 |
| C[C@H](Cn1cnc2c(N)ncnc21)OCP(=O)(O)O [Tenofovir] | 73.2 ± 1.9 |
| CN(C/C=C/C#CC(C)(C)C)Cc1cccc2ccccc12 [Terbinafine HCl] | 97 ± 1.5 |
| CCC(=O)O[C@H]1CC[C@H]2[C@@H]3CCC4=CC(=O)CC[C@]4(C)[C@H]3CC[C@]12C [Testosterone propionate (Agovirin)] | 104 ± 1.2 |
| CCCCNc1ccc(C(=O)OCCN(C)C)cc1 [Tetracaine HCl] | 105 ± 2.3 |
| C[N+]1(C)[C@@H]2C[C@@H](OC(=O)C(O)(c3cccs3)c3cccs3)C[C@H]1[C@@H]1O[C@@H]12 [Tiotropium Bromide hydrate] | 110 ± 3.6 |
| C[N+]1(C)[C@@H]2C[C@@H](OC(=O)C(O)(c3cccs3)c3cccs3)C[C@H]1[C@@H]1O[C@@H]12 [Tiotropium] | 114 ± 4.8 |
| O=c1oc2cc(O)ccc2s1 [Tioxolone] | 105.7 ± 0.97 |
| O=c1n(CCCN2CCN(c3cccc(Cl)c3)CC2)nc2ccccn12 [Trazodone HCl] | 103 ± 1.8 |
| CC(/C=C/C(=O)NO)=C\[C@@H](C)C(=O)c1ccc(N(C)C)cc1 [Trichostatin A] | 117 ± 1.7 |
| C[C@]12CC[C@H]3[C@@H](CC[C@@]45O[C@@H]4C(O)=C(C#N)C[C@]35C)[C@@H]1CC[C@@H]2O [Trilostane] | 94 ± 6 |
| CN1[C@@H]2CC[C@H]1C[C@@H](OC(=O)c1c[nH]c3ccccc13)C2 [Tropisetron HCl] | 94 ± 3.9 |
| O=C(O[C@H]1C[C@H]2CC[C@@H](C1)[N+]21CCCC1)C(O)(c1ccccc1)c1ccccc1 [Trospium chloride (Sanctura)] | 99.2 ± 1.8 |
| CN1CCc2c(c3ccccc3n2Cc2ccc(C(=O)NO)cc2)C1 [Tubastatin A HCl] | 91.6 ± 2.8 |
| N#CC(=C(/N)Sc1ccccc1N)/C(C#N)=C(\N)Sc1ccccc1N [U0126-EtOH] | 103 ± 1.3 |
| NC(=O)c1cccc(-c2cccc(OC(=O)NC3CCCCC3)c2)c1 [URB597] | 107 ± 7 |
| CC(C)(C)C#Cc1cc(N(C(=O)[C@H]2CC[C@H](C)CC2)[C@H]2CC[C@H](O)CC2)c(C(=O)O)s1 [VX-222] | 117.11 ± 0.037 |
| NC(=O)c1ccc(N(C(N)=O)c2c(F)cccc2F)nc1-c1ccc(F)cc1F [VX-702] | 109 ± 1.9 |
| O=c1ncn2nc(Sc3ccc(F)cc3F)ccc2c1-c1c(Cl)cccc1Cl [VX-745] | 112 ± 5.5 |
| CCO[C@@H]1OC(=O)C[C@@H]1NC(=O)[C@@H]1CCCN1C(=O)[C@@H](NC(=O)c1ccc(N)c(Cl)c1)C(C)(C)C [VX-765] | 105 ± 4.9 |
| CC(C)(C)c1cc(C(C)(C)C)c(NC(=O)c2c[nH]c3ccccc3c2=O)cc1O [VX-770] | 104 ± 5.4 |
| CCCCC(=O)N(Cc1ccc(-c2ccccc2-c2nnn[nH]2)cc1)[C@H](C(=O)O)C(C)C [Valsartan] | 113 ± 4.4 |
| COc1cc2/c(=N/c3ccc(Br)cc3F)nc[nH]c2cc1OCC1CCN(C)CC1 [Vandetanib] | 101 ± 3.8 |
| CCCc1nc(C)c2c(=O)nc(-c3cc(S(=O)(=O)N4CCN(CC)CC4)ccc3OCC)[nH]n12 [Vardenafil (Vivanza)] | 104 ± 1.2 |
| Clc1ccc(Nc2nnc(Cc3ccncc3)c3ccccc23)cc1 [Vatalanib] | 102 ± 9.1 |
| COc1ccc(C(CN(C)C)C2(O)CCCCC2)cc1 (centres undefined) [Venlafaxine HCl] | 101 ± 2.7 |

Same assay, conditions: 0.01 µM; serum: 10% FBS; 72 h

| SMILES | relative viability [%] |
| --- | --- |
| COc1cc2c(N3CCN(C(=O)Nc4ccc(OC(C)C)cc4)CC3)ncnc2cc1OCCCN1CCCCC1 [Tandutinib (MLN518)] | 99.7 ± 0.23 |
| CNC(=O)c1cc(COc2nnc(Nc3ccc(Cl)cc3)c3ccoc23)ccn1 [Telatinib (BAY57-9352)] | 83.7 ± 2.7 |
| CCCc1nc2c(C)cc(-c3nc4ccccc4n3C)cc2n1Cc1ccc(-c2ccccc2C(=O)O)cc1 [Telmisartan] | 103 ± 2.6 |
| C[C@H](Cn1cnc2c(N)ncnc21)OCP(=O)(O)O [Tenofovir] | 75.6 ± 11 |
| CN(C/C=C/C#CC(C)(C)C)Cc1cccc2ccccc12 [Terbinafine HCl] | 92 ± 0.96 |
| CCC(=O)O[C@H]1CC[C@H]2[C@@H]3CCC4=CC(=O)CC[C@]4(C)[C@H]3CC[C@]12C [Testosterone propionate (Agovirin)] | 98.7 ± 3.7 |
| CCCCNc1ccc(C(=O)OCCN(C)C)cc1 [Tetracaine HCl] | 100 ± 3.7 |
| C[N+]1(C)[C@@H]2C[C@@H](OC(=O)C(O)(c3cccs3)c3cccs3)C[C@H]1[C@@H]1O[C@@H]12 [Tiotropium Bromide hydrate] | 116.3 ± 0.16 |
| C[N+]1(C)[C@@H]2C[C@@H](OC(=O)C(O)(c3cccs3)c3cccs3)C[C@H]1[C@@H]1O[C@@H]12 [Tiotropium] | 115 ± 4.8 |
| O=c1oc2cc(O)ccc2s1 [Tioxolone] | 105 ± 4 |
| O=c1n(CCCN2CCN(c3cccc(Cl)c3)CC2)nc2ccccn12 [Trazodone HCl] | 105 ± 2.1 |
| CC(/C=C/C(=O)NO)=C\[C@@H](C)C(=O)c1ccc(N(C)C)cc1 [Trichostatin A] | 117.6 ± 0.42 |
| C[C@]12CC[C@H]3[C@@H](CC[C@@]45O[C@@H]4C(O)=C(C#N)C[C@]35C)[C@@H]1CC[C@@H]2O [Trilostane] | 93.7 ± 0.94 |
| CN1[C@@H]2CC[C@H]1C[C@@H](OC(=O)c1c[nH]c3ccccc13)C2 [Tropisetron HCl] | 99.6 ± 3.9 |
| O=C(O[C@H]1C[C@H]2CC[C@@H](C1)[N+]21CCCC1)C(O)(c1ccccc1)c1ccccc1 [Trospium chloride (Sanctura)] | 110 ± 5.9 |
| CN1CCc2c(c3ccccc3n2Cc2ccc(C(=O)NO)cc2)C1 [Tubastatin A HCl] | 85.5 ± 1 |
| N#CC(=C(/N)Sc1ccccc1N)/C(C#N)=C(\N)Sc1ccccc1N [U0126-EtOH] | 103 ± 2.5 |
| NC(=O)c1cccc(-c2cccc(OC(=O)NC3CCCCC3)c2)c1 [URB597] | 109.5 ± 0.46 |
| CC(C)(C)C#Cc1cc(N(C(=O)[C@H]2CC[C@H](C)CC2)[C@H]2CC[C@H](O)CC2)c(C(=O)O)s1 [VX-222] | 111 ± 2 |
| NC(=O)c1ccc(N(C(N)=O)c2c(F)cccc2F)nc1-c1ccc(F)cc1F [VX-702] | 96.7 ± 1.6 |
| O=c1ncn2nc(Sc3ccc(F)cc3F)ccc2c1-c1c(Cl)cccc1Cl [VX-745] | 107 ± 1.1 |
| CCO[C@@H]1OC(=O)C[C@@H]1NC(=O)[C@@H]1CCCN1C(=O)[C@@H](NC(=O)c1ccc(N)c(Cl)c1)C(C)(C)C [VX-765] | 116 ± 3.2 |
| CC(C)(C)c1cc(C(C)(C)C)c(NC(=O)c2c[nH]c3ccccc3c2=O)cc1O [VX-770] | 116 ± 2.3 |
| CCCCC(=O)N(Cc1ccc(-c2ccccc2-c2nnn[nH]2)cc1)[C@H](C(=O)O)C(C)C [Valsartan] | 117.3 ± 1 |
| COc1cc2/c(=N/c3ccc(Br)cc3F)nc[nH]c2cc1OCC1CCN(C)CC1 [Vandetanib] | 109 ± 3.6 |
| CCCc1nc(C)c2c(=O)nc(-c3cc(S(=O)(=O)N4CCN(CC)CC4)ccc3OCC)[nH]n12 [Vardenafil (Vivanza)] | 104 ± 3.8 |
| Clc1ccc(Nc2nnc(Cc3ccncc3)c3ccccc23)cc1 [Vatalanib] | 115 ± 1.4 |
| COc1ccc(C(CN(C)C)C2(O)CCCCC2)cc1 (centres undefined) [Venlafaxine HCl] | 96.3 ± 9.2 |
